EC50 and Emax data for 22 molecules are collected here from US20060247261A1 (priority 2002, published 2006).

Molecules are shown by their SMILES.

The target of the assay is T1, human cannabinoid CB2 receptor (Homo sapiens, UniProt P34972).
T1 construct: expressed in transfected cells; host or cells: Saccharomyces cerevisiae strain MMY23 (expresses a chimeric Gpa1/human Galpha-i3 G-protein alpha subunit)
Briefly: Cannabinoid CB2 receptor agonist activity, yeast reporter assay. The format is cell-based. As to conditions: for Emax: read-out: efficacy (Emax) at the cloned human cannabinoid CB2 receptor. The source says:
Yeast (Saccharomyces cerevisiae) cells expressing the human cannabinoid CB2 receptor were generated by integration of an expression cassette into the ura3 chromosomal locus of yeast strain MMY23. This cassette consisted of DNA sequence encoding the human CB2 receptor flanked by the yeast GPD promoter to the 5′ end of CB2 and a yeast transcriptional terminator sequence to the 3′ end of CB2. MMY23 expresses a yeast/mammalian chimeric G-protein alpha subunit in which the C-terminal 5 amino acids of Gpa1 are replaced with the C-terminal 5 amino acids of human Gαi3 (as described in Brown et al. (2000), Yeast 16:11-22).
Agonists were prepared as 10 mM stocks in DMSO. […] Agonist solutions in DMSO (1% final assay volume) were transferred into black, clear bottom, microtitre plates from NUNC (96- or 384-well). […] Fluorescence was plotted against compound concentration and iteratively curve fitted using a four parameter fit to generate a concentration effect value.

T1 sequence (P34972 whole entry): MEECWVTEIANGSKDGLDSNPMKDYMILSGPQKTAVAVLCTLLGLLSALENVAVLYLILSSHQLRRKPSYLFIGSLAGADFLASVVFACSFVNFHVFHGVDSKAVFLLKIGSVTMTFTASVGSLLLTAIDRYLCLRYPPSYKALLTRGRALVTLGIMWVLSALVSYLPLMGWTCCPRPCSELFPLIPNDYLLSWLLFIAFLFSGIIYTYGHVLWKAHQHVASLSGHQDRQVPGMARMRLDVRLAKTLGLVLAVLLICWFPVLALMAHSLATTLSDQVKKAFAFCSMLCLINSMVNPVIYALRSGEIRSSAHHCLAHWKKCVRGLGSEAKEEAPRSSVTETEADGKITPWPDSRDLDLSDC

As usually defined, the EC50 is the concentration needed to bring the measured effect to its halfway point. Higher therefore signals a need for much substance. As a reminder, the Emax is the size of the effect at its maximum, as opposed to the concentration needed. Take `N#Cc1ccc(CNC(=O)c2cnc(Nc3c(Cl)cccc3Cl)nc2C(F)(F)F)cc1` [Example 71, 2-(2,6-Dichloro-phenylamino)-4-trifluoroniethyl-pyrimidine-5-carboxylic acid N-(4-cyano-benzyl)amide]: the EC50 is more than 1 µM and the Emax was less than 50%.
The like results for `O=C(NCc1ccc(F)cc1Cl)c1cnc(Nc2cccc(Cl)c2)nc1C(F)(F)F` [Example 72, 2-(3-Chloro-phenylamino)-4-trifluoromethyl-pyrimidine-5-carboxylic acid N-(2-chloro-4-fluoro-benzyl)amide] were, in that order, more than 1 µM and less than 50%.
The like results for `O=C(NCc1ccc(F)cc1C(F)(F)F)c1cnc(Nc2cccc(Cl)c2)nc1C(F)(F)F` [Example 74, 2-(3-Chloro-phenylamino)-4-trifluoromethyl-pyrimidine-5-carboxylic acid N-(4-fluoro-2-trifluoromethyl-benzyl)amide] were, in that order, more than 1 µM and less than 50%.
The like results for `O=C(NCc1ccc(F)c(C(F)(F)F)c1)c1cnc(Nc2cccc(Cl)c2)nc1C(F)(F)F` [Example 75, 2-(3-Chloro-phenylamino)-4-trifluoromethyl-pyrimidine-5-carboxylic acid N-(4-fluoro-3-trifluoromethyl-benzyl)amide] were, in that order, more than 1 µM and less than 50%.
Consider `O=C(NCc1ccncn1)c1cnc(Nc2cccc(F)c2)nc1C(F)(F)F` [Example 76, 2-(3-Fluoro-phenylamino)-4-trifluoromethyl-pyrimidine-5-carboxylic acid N-(pyrimidin-4-ylmethyl)-amide], for which the EC50 was more than 1 µM and the Emax is less than 50%.
Take `Cc1cc(CNC(=O)c2cnc(Nc3cccc(F)c3)nc2C(F)(F)F)ccn1` [Example 77, 2-(3-Fluoro-phenylamino)-4-trifluoromethyl-pyrimidine-5-carboxylic acid N-(2-methyl-pyridin-4-ylmethyl)-amide]: the half-maximal effective concentration (EC50) was more than 1 µM and the Emax was less than 50%.
The matching figures for `Cc1ccc(CNC(=O)c2cnc(Nc3cccc(Cl)c3)nc2C(F)(F)F)cc1` [Example 78, 2-(3-Chloro-phenylamino)-4-trifluoromethyl-pyrimidine-5-carboxylic acid N-(4-methyl-benzyl)amide]: more than 1 µM and less than 50%.
The matching figures for `O=C(NCc1ccc(F)c(F)c1)c1cnc(Nc2cccc(Cl)c2)nc1C(F)(F)F` [Example 81, 2-(3-Chloro-phenylamino)-4-trifluoromethyl-pyrimidine-5-carboxylic acid 3,4-difluoro-benzylamide]: 0.02 to 1 µM and more than 50%.
Regarding `O=C(NCc1ccc(F)cc1)c1cnc(Nc2ccc(F)c(Cl)c2)nc1C(F)(F)F` [Example 82, 2-(3-Chloro-4-fluoro-phenylamino)-4-trifluoromethyl-pyrimidine-5-carboxylic acid 4-fluoro-benzylamide], the EC50 lay within 0.02 to 1 µM and the maximum response (Emax) is more than 50%.
For the molecule `O=C(NCc1ccc(F)cc1)c1cnc(Nc2cccc(Cl)c2F)nc1C(F)(F)F` [Example 83, 2-(3-Chloro-2-fluoro-phenylamino)-4-trifluoromethyl-pyrimidine-5-carboxylic acid 4-fluoro-benzylamide], the EC50 fell in the range of 0.02 to 1 µM and the Emax is more than 50%.
For the molecule `O=C(NCc1ccc(F)cc1)c1cnc(Nc2cc(Cl)ccc2F)nc1C(F)(F)F` [Example 84, 2-(5-Chloro-2-fluoro-phenylamino)-4-trifluoromethyl-pyrimidine-5-carboxylic acid 4-fluoro-benzylamide], the concentration giving a half-maximal response (EC50) was 0.02 to 1 µM and the Emax was more than 50%.
The matching figures for `O=C(NCc1ccc(F)cc1)c1cnc(Nc2cc(F)cc(F)c2)nc1C(F)(F)F` [Example 85, 2-(3,5-Difluoro-phenylamino)-4-trifluoromethyl-pyrimidine-5-carboxylic acid 4-fluoro-benzylamide]: 0.02 to 1 µM and more than 50%.
The like results for `N#Cc1ccc(Nc2ncc(C(=O)NCc3ccc(F)cc3)c(C(F)(F)F)n2)cc1Cl` [Example 86, 2-(3-Chloro-4-cyano-phenylamino)-4-trifluoromethyl-pyrimidine-5-carboxylic acid 4-fluoro-benzylamide] were, in that order, 0.02 to 1 µM and more than 50%.
The like results for `COc1cccc(Nc2ncc(C(=O)NCc3ccncc3)c(C(F)(F)F)n2)c1` [Example 87] were, in that order, 0.02 to 1 µM and more than 50%.
Consider `O=C(NCc1ccnc(F)c1)c1cnc(Nc2cccc(Br)c2)nc1C(F)(F)F` [Example 88, 2-(3-Bromo-phenylamino)-4-trifluoromethyl-pyrimidine-5-carboxylic acid (2-fluoro-pyridin4-ylmethyl)-amide], for which the half-maximal effective concentration (EC50) is 0.02 to 1 µM and the Emax is more than 50%.
The like results for `O=C(NCc1ccnc(F)c1)c1cnc(Nc2cccc(F)c2)nc1C(F)(F)F` [Example 89, 2-(3-Fluoro-phenylamino)-4-trifluoromethyl-pyrimidine-5-carboxylic acid (2-fluoro-pyridin-4-ylmethyl)-amide] were, in that order, 0.02 to 1 µM and more than 50%.
The like results for `O=C(NCc1ccnc(F)c1)c1cnc(Nc2cc(Cl)ccc2Cl)nc1C(F)(F)F` [Example 90, 2-(2,5-Dichloro-phenylamino)-4-trifluoromethyl-pyrimidine-5-carboxylic acid (2-fluoro-pyridin-4-ylmethyl)-amide] were, in that order, 0.02 to 1 µM and more than 50%.
The matching figures for `O=C(NCc1ccnc(F)c1)c1cnc(Nc2cc(Cl)cc(Cl)c2)nc1C(F)(F)F` [Example 91, 2-(3,5-Dichloro-phenylamino)-4-trifluoromethyl-pyrimidine-5-carboxylic acid (2-fluoro-pyridin-4-ylmethyl)-amide]: 0.02 to 1 µM and more than 50%.
On to `O=C(NCc1ccnc(F)c1)c1cnc(Nc2ccc(Cl)c(Cl)c2)nc1C(F)(F)F` [Example 92, 2-(3,4-Dichloro-phenylamino)-4-trifluoromethyl-pyrimidine-5-carboxylic acid (2-fluoro-pyridin-4-ylmethyl)-amide], for which the 50% effective concentration (EC50) was in the range of 0.02 to 1 µM and the maximal response (Emax) was more than 50%.
Take `O=C(NCc1ccnc(F)c1)c1cnc(Nc2c(Cl)cccc2Cl)nc1C(F)(F)F` [Example 93, 2-(2,6-Dichloro-phenylamino)-4-trifluoromethyl-pyrimidine-5-carboxylic acid (2-fluoro-pyridin-4-ylmethyl)-amide]: the EC50 lay in the range of 0.02 to 1 µM and the Emax was more than 50%.
As for `O=C(NCc1ccnc(F)c1)c1cnc(Nc2cccc(Cl)c2Cl)nc1C(F)(F)F` [Example 94, 2-(2,3-Dichloro-phenylamino)-4-trifluoromethyl-pyrimidine-5-carboxylic acid (2-fluoro-pyridin-4-ylmethyl)-amide], the EC50 is 0.02 to 1 µM and the Emax is more than 50%.
The like results for `O=C(NCc1ccnc(F)c1)c1cnc(Nc2ccc(Cl)cc2Cl)nc1C(F)(F)F` [Example 95, 2-(2,4-Dichloro-phenylamino)-4-trifluoromethyl-pyrimidine-5-carboxylic acid (2-fluoro-pyridin-4-ylmethyl)-amide] were, in that order, 0.02 to 1 µM and more than 50%.
